Measured values published in BindingDB's records for doi:10.1021/acs.jmedchem.9b00742 (Leiden University, 2019).

How the values were obtained:
[1] = biological target: T1, C-C chemokine receptor type 2 (Homo sapiens, UniProt P41597); experiment: Displacement of [3H]-CCR2-RA-[R] from human CCR2 expressed in human U2OS cells incubated for 2 hrs by scintillation spectrometric method
[2] = biological target: T2, C-C chemokine receptor type 5 (Homo sapiens, UniProt P51681); experiment: Non-competitive insurmountable antagonist activity at human CCR5 expressed in human U2OS cell membranes assessed as EC50 for CCL3-stimulated [35S]GTPgammaS binding at 300 nM preincubated for 30 mins followed by [35S]GTPgammaS addition and measured after 90 mins (Rvb = 4 nM)
T2 sequence (P51681 whole entry): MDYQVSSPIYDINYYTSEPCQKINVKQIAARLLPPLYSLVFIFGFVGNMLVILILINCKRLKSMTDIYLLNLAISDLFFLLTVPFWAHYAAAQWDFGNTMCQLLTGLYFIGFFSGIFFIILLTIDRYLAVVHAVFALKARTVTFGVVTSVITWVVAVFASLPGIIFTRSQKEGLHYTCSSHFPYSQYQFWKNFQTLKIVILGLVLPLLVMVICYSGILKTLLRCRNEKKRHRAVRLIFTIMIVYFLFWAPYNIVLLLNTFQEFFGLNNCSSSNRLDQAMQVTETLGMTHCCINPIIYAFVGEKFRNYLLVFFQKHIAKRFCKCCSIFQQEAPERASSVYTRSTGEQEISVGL

[3] = biological target: T2, C-C chemokine receptor type 5; experiment: Non-competitive insurmountable antagonist activity at human CCR5 expressed in human U2OS cell membranes assessed as pEC50 for CCL3-stimulated [35S]GTPgammaS binding at 100 nM preincubated for 30 mins followed by [35S]GTPgammaS addition and measured after 90 mins (Rvb = 8.42 +/- 0.06 No_unit)
[4] = biological target: T2, C-C chemokine receptor type 5; experiment: Non-competitive insurmountable antagonist activity at human CCR5 expressed in human U2OS cell membranes assessed as pEC50 for CCL3-stimulated [35S]GTPgammaS binding at 300 nM preincubated for 30 mins followed by [35S]GTPgammaS addition and measured after 90 mins (Rvb = 8.42 +/- 0.06 No_unit)
[5] = biological target: T1, C-C chemokine receptor type 2; experiment: Non-competitive insurmountable antagonist activity at human CCR2 expressed in human U2OS cell membranes assessed as pEC50 for CCL2-stimulated [35S]GTPgammaS binding at 100 nM preincubated for 30 mins followed by [35S]GTPgammaS addition and measured after 90 mins (Rvb = 8.10 +/- 0.06 No_unit)
[6] = biological target: T2, C-C chemokine receptor type 5; experiment: Non-competitive insurmountable antagonist activity at human CCR5 expressed in human U2OS cell membranes assessed as EC50 for CCL3-stimulated [35S]GTPgammaS binding at 1000 nM preincubated for 30 mins followed by [35S]GTPgammaS addition and measured after 90 mins (Rvb = 4 nM)
[7] = biological target: T1, C-C chemokine receptor type 2; experiment: Non-competitive insurmountable antagonist activity at human CCR2 expressed in human U2OS cell membranes assessed as EC50 for CCL2-stimulated [35S]GTPgammaS binding at 10 nM preincubated for 30 mins followed by [35S]GTPgammaS addition and measured after 90 mins (Rvb = 8 nM)
[8] = biological target: T1, C-C chemokine receptor type 2; experiment: Non-competitive insurmountable antagonist activity at human CCR2 expressed in human U2OS cell membranes assessed as pEC50 for CCL2-stimulated [35S]GTPgammaS binding at 30 nM preincubated for 30 mins followed by [35S]GTPgammaS addition and measured after 90 mins (Rvb = 8.10 +/- 0.06 No_unit)
[9] = biological target: T1, C-C chemokine receptor type 2; experiment: Non-competitive insurmountable antagonist activity at human CCR2 expressed in human U2OS cell membranes assessed as pEC50 for CCL2-stimulated [35S]GTPgammaS binding at 10 nM preincubated for 30 mins followed by [35S]GTPgammaS addition and measured after 90 mins (Rvb = 8.10 +/- 0.06 No_unit)
[10] = biological target: T2, C-C chemokine receptor type 5; experiment: Non-competitive insurmountable antagonist activity at human CCR5 expressed in human U2OS cell membranes assessed as EC50 for CCL3-stimulated [35S]GTPgammaS binding at 100 nM preincubated for 30 mins followed by [35S]GTPgammaS addition and measured after 90 mins (Rvb = 4 nM)
[11] = biological target: T1, C-C chemokine receptor type 2; experiment: Antagonist activity at CCR2b in human THP1 cells assessed as inhibition of human MCP1 induced calcium flux by fluo-4 dye based fluorescence assay
[12] = biological target: T2, C-C chemokine receptor type 5; experiment: Non-competitive insurmountable antagonist activity at human CCR5 expressed in human U2OS cell membranes assessed as pEC50 for CCL3-stimulated [35S]GTPgammaS binding at 30 nM preincubated for 30 mins followed by [35S]GTPgammaS addition and measured after 90 mins (Rvb = 8.42 +/- 0.06 No_unit)
[13] = biological target: T1, C-C chemokine receptor type 2; experiment: Non-competitive insurmountable antagonist activity at human CCR2 expressed in human U2OS cell membranes assessed as pEC50 for CCL2-stimulated [35S]GTPgammaS binding at 1 nM preincubated for 30 mins followed by [35S]GTPgammaS addition and measured after 90 mins (Rvb = 8.10 +/- 0.06 No_unit)
[14] = biological target: T1, C-C chemokine receptor type 2; experiment: Non-competitive insurmountable antagonist activity at human CCR2 expressed in human U2OS cell membranes assessed as pEC50 for CCL2-stimulated [35S]GTPgammaS binding at 3 nM preincubated for 30 mins followed by [35S]GTPgammaS addition and measured after 90 mins (Rvb = 8.10 +/- 0.06 No_unit)
[15] = biological target: T1, C-C chemokine receptor type 2; experiment: Non-competitive insurmountable antagonist activity at human CCR2 expressed in human U2OS cell membranes assessed as EC50 for CCL2-stimulated [35S]GTPgammaS binding at 3 nM preincubated for 30 mins followed by [35S]GTPgammaS addition and measured after 90 mins (Rvb = 8 nM)
[16] = biological target: T1, C-C chemokine receptor type 2; experiment: Non-competitive insurmountable antagonist activity at human CCR2 expressed in human U2OS cell membranes assessed as EC50 for CCL2-stimulated [35S]GTPgammaS binding at 1 nM preincubated for 30 mins followed by [35S]GTPgammaS addition and measured after 90 mins (Rvb = 8 nM)

T1 sequence (P41597 whole entry): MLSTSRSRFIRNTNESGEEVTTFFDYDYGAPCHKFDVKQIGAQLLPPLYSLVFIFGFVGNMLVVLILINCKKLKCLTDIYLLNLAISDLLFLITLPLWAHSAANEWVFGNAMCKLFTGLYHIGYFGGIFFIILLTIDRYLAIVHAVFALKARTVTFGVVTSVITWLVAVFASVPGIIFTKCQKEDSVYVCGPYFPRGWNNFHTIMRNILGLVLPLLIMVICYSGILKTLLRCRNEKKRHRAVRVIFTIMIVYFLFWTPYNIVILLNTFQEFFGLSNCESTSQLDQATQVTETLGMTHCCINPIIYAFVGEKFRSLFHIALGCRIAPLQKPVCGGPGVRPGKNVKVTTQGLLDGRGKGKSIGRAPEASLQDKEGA

SMILES | Ki [1] [nM] | EC50 [2] [nM] | EC50 [3] [nM] | EC50 [4] [nM] | EC50 [7] [nM] | EC50 [9] [nM] | EC50 [10] [nM] | also measured
Nc1nc2[nH]c(C3CC3)c(Cc3cccc(F)c3)c(=O)n2n1 | 2.95 |  |  |  |  |  |  | 
Nc1nc2[nH]c(-c3ccccc3)c(Cc3cccc(Cl)c3)c(=O)n2n1 | 22.9 |  |  |  |  |  |  | 
CC(C)c1[nH]c2nc(N)nn2c(=O)c1Cc1cccc(Cl)c1Cl |  | 8.0 | 4.5 | 7.2 | 13 | 13 | 5.0 | EC50 [5]: 54 nM; EC50 [6]: 9.0 nM; EC50 [8]: 25 nM
O=c1c(Cc2cccc(Cl)c2)c(C2CC2)[nH]c2ncnn12 |  |  |  |  |  |  |  | IC50 [11]: 16 nM
CC(C)c1[nH]c2nc(N)nn2c(=O)c1Cc1ccc(Cl)c(Br)c1 |  | 9.0 | 6.2 | 8.9 | 148 | 135 | 6.0 | EC50 [12]: 5.0 nM; EC50 [13]: 12 nM; EC50 [14]: 30 nM; EC50 [15]: 32 nM; EC50 [16]: 13 nM
Nc1nc2[nH]c(C3CC3)c(Cc3ccc(Cl)c(Cl)c3)c(=O)n2n1 | 0.447 |  |  |  |  |  |  | 
